A short description of series [1]: Detergent and micelle properties. As to conditions: for Est. Micelle MW: estimated micelle molecular weight. It counts as physicochemical.
Series [2] concerns E. coli DH5α expressing homoprotocatechuate 2,3-dioxygenase (2,3-HPCD). It counts as cell-based. As to conditions: 1% w/v for 20 minutes. The method, then:
A 200 μL aliquot of 500 μM DHPAC in 50 mM PB at pH 7.5 was added to each well and A380 was measured for up to one hour. The data was then fit to a first order reaction model of the form:
Cp(t)=Cs,0(1−e^−k^r^t) (4)
Cp is the product concentration, Cs,0 is the initial substrate concentration, and kr is the first order reaction rate constant.

The conditions of series [3]: detergent micelle; cited from earlier work.

For polysorbate 85 [Tween 85], in series [1], the “Est. Micelle MW” value is 110 kDa. Further, the “change in biocatalytic activity after detergent/surfactant treatment” value in series [2] is recorded as “modest”. For the same substance, the “Aggregation Number” value in series [3] is 60.

On to “polyethylene glycol p-(1,1,3,3-tetramethylbutyl)-phenyl ether [Triton X-100]”, for which, in series [1], the micelle hydrodynamic radii is listed as around 4 nm and the “Est. Micelle MW” value is listed as 228 kDa. Moreover, in series [2], the “change in biocatalytic activity after detergent/surfactant treatment” value was “modest”. For the same substance, in series [3], the “Aggregation Number” value was 140.

Source of the values: US20200370033A1, “BIOLOGICAL ASSEMBLY INCLUDING BIOLOGICAL COMPONENT AND SHIELD” (Regents of the University of Minnesota, priority 2018, published 2020).
